Laboratory results: patent US7528138B2, “Pyrazolo[1,5-a]pyrimidines useful as inhibitors of protein kinases” (Vertex Pharmaceuticals Incorporated, priority 2004, dated 2009)

How the values were obtained:
JAK3 = biological target: T1, JAK3 (Homo sapiens, UniProt P52333); test: JAK3 Inhibition Assay, 33P incorporation; type: biochemical; conditions: enzyme inhibition data (Ki), Table 11
T1 sequence (P52333 1-1124): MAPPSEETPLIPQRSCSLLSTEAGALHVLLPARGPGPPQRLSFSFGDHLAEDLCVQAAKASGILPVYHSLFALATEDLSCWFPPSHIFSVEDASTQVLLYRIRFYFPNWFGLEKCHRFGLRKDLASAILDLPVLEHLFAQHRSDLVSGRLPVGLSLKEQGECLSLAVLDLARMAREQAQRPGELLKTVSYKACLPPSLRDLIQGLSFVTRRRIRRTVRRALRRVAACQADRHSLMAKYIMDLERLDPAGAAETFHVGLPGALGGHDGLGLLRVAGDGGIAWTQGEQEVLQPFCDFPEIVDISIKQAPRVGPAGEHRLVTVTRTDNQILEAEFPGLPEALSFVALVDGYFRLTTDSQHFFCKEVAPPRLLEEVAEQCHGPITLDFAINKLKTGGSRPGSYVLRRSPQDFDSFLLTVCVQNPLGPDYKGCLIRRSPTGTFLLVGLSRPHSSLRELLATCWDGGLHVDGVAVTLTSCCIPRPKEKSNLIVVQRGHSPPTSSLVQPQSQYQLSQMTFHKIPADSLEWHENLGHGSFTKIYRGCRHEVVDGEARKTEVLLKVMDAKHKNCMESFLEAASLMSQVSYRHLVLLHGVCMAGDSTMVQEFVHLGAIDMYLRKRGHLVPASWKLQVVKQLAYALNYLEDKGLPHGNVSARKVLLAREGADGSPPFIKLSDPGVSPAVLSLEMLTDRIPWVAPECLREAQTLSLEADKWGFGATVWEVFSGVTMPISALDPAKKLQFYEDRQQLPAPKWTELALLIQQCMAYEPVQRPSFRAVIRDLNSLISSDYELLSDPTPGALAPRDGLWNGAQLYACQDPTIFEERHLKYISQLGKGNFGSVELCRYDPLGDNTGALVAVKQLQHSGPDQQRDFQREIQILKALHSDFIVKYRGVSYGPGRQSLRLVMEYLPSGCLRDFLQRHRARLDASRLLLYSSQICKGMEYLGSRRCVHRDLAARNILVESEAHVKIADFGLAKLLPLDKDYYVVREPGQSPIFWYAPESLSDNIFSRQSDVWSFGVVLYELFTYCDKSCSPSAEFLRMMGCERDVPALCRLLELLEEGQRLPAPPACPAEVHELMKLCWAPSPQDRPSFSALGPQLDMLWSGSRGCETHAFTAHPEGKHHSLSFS
Outline: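 Recombinant JAK3 at 1 nM in HEPES pH 7.4 buffer with 10 mM MgCl2, 1 mM DTT and 0.01% BSA. Substrates were 5 μM ATP (200 uCi/μmole) and 1 μM poly(Glu)4Tyr, reacted 20 min at 25 °C. Stopped with TCA, and 33P incorporation counted on glass fiber filters.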

c-Met = c-Met (Homo sapiens, UniProt P08581); test: c-Met Inhibition Assay, coupled enzyme system; type: biochemical; conditions: enzyme inhibition data (Ki), Table 11
Outline: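 Pyruvate kinase/lactate dehydrogenase-coupled NADH assay in HEPES pH 7.5 with 80 nM c-Met, 200 μM ATP and 10 μM polyGluTyr at 30° C. Compound (0.006–12.5 μM final, 12-point) preincubated 10 min before ATP start; rates over 10 min gave Ki.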

Chain of c-Met (P08581 25-1390): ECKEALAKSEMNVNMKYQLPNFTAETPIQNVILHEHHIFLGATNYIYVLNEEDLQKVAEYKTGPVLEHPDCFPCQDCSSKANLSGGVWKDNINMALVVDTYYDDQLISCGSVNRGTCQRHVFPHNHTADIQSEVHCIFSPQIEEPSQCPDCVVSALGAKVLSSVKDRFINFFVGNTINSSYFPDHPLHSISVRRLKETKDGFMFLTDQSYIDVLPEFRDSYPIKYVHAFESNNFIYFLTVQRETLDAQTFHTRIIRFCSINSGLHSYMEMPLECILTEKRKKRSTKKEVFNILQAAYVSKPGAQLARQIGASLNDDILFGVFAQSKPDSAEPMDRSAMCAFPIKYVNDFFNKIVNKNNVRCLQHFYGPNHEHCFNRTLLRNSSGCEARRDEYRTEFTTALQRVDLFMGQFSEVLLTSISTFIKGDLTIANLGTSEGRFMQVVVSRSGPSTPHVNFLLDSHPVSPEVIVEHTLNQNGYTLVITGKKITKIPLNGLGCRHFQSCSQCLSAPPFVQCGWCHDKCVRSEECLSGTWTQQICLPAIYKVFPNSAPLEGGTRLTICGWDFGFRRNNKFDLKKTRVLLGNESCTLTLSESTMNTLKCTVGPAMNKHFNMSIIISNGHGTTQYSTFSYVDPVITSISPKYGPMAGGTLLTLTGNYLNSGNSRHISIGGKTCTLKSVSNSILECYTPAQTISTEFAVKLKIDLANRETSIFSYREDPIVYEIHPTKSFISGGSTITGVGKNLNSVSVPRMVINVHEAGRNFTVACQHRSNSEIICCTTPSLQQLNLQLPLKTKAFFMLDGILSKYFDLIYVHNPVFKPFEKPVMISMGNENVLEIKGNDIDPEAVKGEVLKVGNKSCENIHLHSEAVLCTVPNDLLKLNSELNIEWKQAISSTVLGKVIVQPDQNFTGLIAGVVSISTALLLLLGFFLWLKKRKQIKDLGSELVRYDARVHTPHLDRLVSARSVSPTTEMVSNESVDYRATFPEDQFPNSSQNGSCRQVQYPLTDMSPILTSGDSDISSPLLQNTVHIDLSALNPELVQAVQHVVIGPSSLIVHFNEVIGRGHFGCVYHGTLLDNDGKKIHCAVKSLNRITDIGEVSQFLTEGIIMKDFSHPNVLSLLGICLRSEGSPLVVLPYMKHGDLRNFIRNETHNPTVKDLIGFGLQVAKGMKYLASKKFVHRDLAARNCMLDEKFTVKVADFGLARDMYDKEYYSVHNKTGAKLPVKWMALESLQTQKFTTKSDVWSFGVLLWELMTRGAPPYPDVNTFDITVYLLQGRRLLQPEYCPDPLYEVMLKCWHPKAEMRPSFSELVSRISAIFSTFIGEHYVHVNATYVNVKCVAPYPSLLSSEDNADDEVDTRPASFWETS

Ki (JAK3) [nM] | Ki (c-Met) [nM] | SMILES
500 to 5000 | < 500 | Nc1nn2cc(-c3ccc(C(=O)N4CCC[C@@H](O)C4)cn3)cnc2c1-c1ccccn1 [Compound V-79]
500 to 5000 | < 500 | Nc1nn2cc(-c3ccc(C(=O)N4CCC(N)C4)cn3)cnc2c1-c1ccccn1 (stereo not shown) [Compound V-81]
> 5000 | < 500 | Nc1nn2cc(-c3ccc(C(=O)N4CCCCC4CCO)cn3)cnc2c1-c1ccccn1 (stereo not shown) [Compound V-82]
500 to 5000 | < 500 | Nc1nn2cc(-c3ccc(C(=O)N4CCC(CCO)CC4)cn3)cnc2c1-c1ccccn1 [Compound V-83]
500 to 5000 | < 500 | CCCN(CCCN)C(=O)c1ccc(-c2cnc3c(-c4ccccn4)c(N)nn3c2)nc1 [Compound V-85]
> 5000 | < 500 | Nc1nn2cc(-c3ccc(C(=O)N4CCC4)cn3)cnc2c1-c1ccccn1 [Compound V-86]
500 to 5000 | < 500 | Nc1nn2cc(-c3ccc(C(=O)N4CCSCC4)cn3)cnc2c1-c1ccccn1 [Compound V-87]
500 to 5000 | < 500 | CCN(C)C(=O)c1ccc(-c2cnc3c(-c4ccccn4)c(N)nn3c2)nc1 [Compound V-89]
500 to 5000 | < 500 | CCN(CCC#N)C(=O)c1ccc(-c2cnc3c(-c4ccccn4)c(N)nn3c2)nc1 [Compound V-90]
500 to 5000 | < 500 | CCCN(CCO)C(=O)c1ccc(-c2cnc3c(-c4ccccn4)c(N)nn3c2)nc1 [Compound V-92]
500 to 5000 | < 500 | Nc1nn2cc(-c3ccc(C(=O)N4CCC[C@@H]4CO)cn3)cnc2c1-c1ccccn1 [Compound V-93]
> 5000 | < 500 | CN(CCN)C(=O)c1ccc(-c2cnc3c(-c4ccccn4)c(N)nn3c2)nc1 [Compound V-94]
500 to 5000 | < 500 | Cc1cnc2c(-c3cc(NC(C)C)ncn3)c(N)nn2c1 [Compound V-273]
500 to 5000 | < 500 | COc1ccccc1Nc1cc(-c2c(N)nn3cc(C)cnc23)ncn1 [Compound V-274]
500 to 5000 | < 500 | Cc1cnc2c(-c3cc(N4CCCCC4)ncn3)c(N)nn2c1 [Compound V-276]
500 to 5000 | < 500 | Cc1cnc2c(-c3cc(NCC4CC4)ncn3)c(N)nn2c1 [Compound V-277]
500 to 5000 | < 500 | Cc1cnc2c(-c3cc(NCC4CCCO4)ncn3)c(N)nn2c1 (stereo not shown) [Compound V-278]
< 500 | < 500 | Cc1cnc2c(-c3cc(Nc4ccccc4)ncn3)c(N)nn2c1 [Compound V-279]
> 5000 | 500 to 5000 | Nc1nn2cc(Cl)cnc2c1-c1ccccn1 [Compound V-280]
500 to 5000 | < 500 | CSc1cc(-c2c(N)nn3cc(C)cnc23)ncn1 [Compound V-281]
500 to 5000 | < 500 | Cc1cnc2c(-c3cc(NC4CCN(Cc5ccccc5)CC4)ncn3)c(N)nn2c1 [Compound V-285]
500 to 5000 | < 500 | Cc1cnc2c(-c3cc(NC4CCN(Cc5ccccc5)C4)ncn3)c(N)nn2c1 (stereo not shown) [Compound V-286]
500 to 5000 | < 500 | Cc1cnc2c(-c3cc(NC4CC4)ncn3)c(N)nn2c1 [Compound V-289]
500 to 5000 | < 500 | Cc1cnc2c(-c3cc(NC4CCC4)ncn3)c(N)nn2c1 [Compound V-290]
500 to 5000 | < 500 | Cc1cnc2c(-c3cc(NC4CCCCC4)ncn3)c(N)nn2c1 [Compound V-291]
500 to 5000 | < 500 | Cc1cnc2c(-c3cc(N[C@H](C)CO)ncn3)c(N)nn2c1 [Compound V-293]
500 to 5000 | < 500 | CC[C@H](C)Nc1cc(-c2c(N)nn3cc(C)cnc23)ncn1 [Compound V-294]
500 to 5000 | < 500 | Cc1cnc2c(-c3cc(N[C@@H](C)CO)ncn3)c(N)nn2c1 [Compound V-295]

More lines, now with the values behind:

SMILES | Ki (JAK3) [nM] | Ki (c-Met) [nM]
COc1ccc(-c2cnc3c(C#N)c(N)nn3c2)cc1 [Compound V-2] | > 5000 | 500 to 5000
COc1ccncc1-c1cnc2c(-c3ccccn3)c(N)nn2c1 [Compound V-22] | > 5000 | < 500
CCOC(=O)c1c(N)nn2cc(-c3ccc(Cl)cc3)cnc12 [Compound V-24] | > 5000 | 500 to 5000
CCN(C(=O)c1c(N)nn2cc(-c3ccncn3)cnc12)C(C)C [Compound V-33] | > 5000 | 500 to 5000
CC(C)N1CCN(c2ccc(-c3cnc4c(-c5ccccn5)c(N)nn4c3)cc2)CC1 [Compound V-51] | 500 to 5000 | < 500
CN(C)CCNC(=O)c1cccc(-c2cnc3c(-c4ccccn4)c(N)nn3c2)c1 [Compound V-54] | > 5000 | < 500
CN1CCN(C(=O)c2cccc(-c3cnc4c(-c5ccccn5)c(N)nn4c3)c2)CC1 [Compound V-55] | > 5000 | < 500
Nc1nn2cc(N3CCOCC3)cnc2c1-c1ccccn1 [Compound V-57] | > 5000 | < 500
CCN(CCN)C(=O)c1ccc(-c2cnc3c(-c4ccccn4)c(N)nn3c2)nc1 [Compound V-62] | 500 to 5000 | < 500
CCN1CCN(C(=O)c2ccc(-c3cnc4c(-c5ccccn5)c(N)nn4c3)nc2)CC1 [Compound V-63] | 500 to 5000 | < 500
COC(=O)N1CCN(C(=O)c2ccc(-c3cnc4c(-c5ccccn5)c(N)nn4c3)nc2)CC1 [Compound V-64] | 500 to 5000 | < 500
CN(C)CCNC(=O)c1ccc(-c2cnc3c(-c4ccccn4)c(N)nn3c2)nc1 [Compound V-65] | 500 to 5000 | < 500
CC(C)N(C)C(=O)c1ccc(-c2cnc3c(-c4ccccn4)c(N)nn3c2)nc1 [Compound V-67] | 500 to 5000 | < 500
COCCN1CCN(C(=O)c2ccc(-c3cnc4c(-c5ccccn5)c(N)nn4c3)nc2)CC1 [Compound V-68] | 500 to 5000 | < 500
CN1CCCN(C(=O)c2ccc(-c3cnc4c(-c5ccccn5)c(N)nn4c3)nc2)CC1 [Compound V-70] | 500 to 5000 | < 500
Nc1nn2cc(-c3ccc(C(=O)N4CCCC(CO)C4)cn3)cnc2c1-c1ccccn1 (stereo not shown) [Compound V-71] | 500 to 5000 | < 500
C#CCN(C)C(=O)c1ccc(-c2cnc3c(-c4ccccn4)c(N)nn3c2)nc1 [Compound V-72] | 500 to 5000 | < 500
Nc1nn2cc(-c3ccc(C(=O)NCCF)cn3)cnc2c1-c1ccccn1 [Compound V-73] | > 5000 | < 500
CCN(CCCCN)C(=O)c1ccc(-c2cnc3c(-c4ccccn4)c(N)nn3c2)nc1 [Compound V-74] | 500 to 5000 | < 500
COCCN(C)C(=O)c1ccc(-c2cnc3c(-c4ccccn4)c(N)nn3c2)nc1 [Compound V-75] | > 5000 | < 500
CCOC(=O)N1CCN(C(=O)c2ccc(-c3cnc4c(-c5ccccn5)c(N)nn4c3)nc2)CC1 [Compound V-76] | 500 to 5000 | < 500
CCN1CCN(C(=O)c2ccc(-c3cnc4c(-c5ccccn5)c(N)nn4c3)nc2)C(O)C1 (stereo not shown) [Compound V-78] | 500 to 5000 | < 500
